Like-named read-outs stand apart in the source and are kept apart here.
Tests used:
[1] = molecular target: T1, human D3 dopamine receptor (Homo sapiens (Human), UniProt P35462); test: Radioligand binding (125I-IABN competition), D3; settings: for Ki: 125I-IABN competition, HEK cell membranes expressing human D3; for D2/D3 (D3 selectivity ratio, D2 Ki/D3 Ki): calculated D2 Ki/D3 Ki
Experimental: (§1) The affinities of the target compounds were determined using radioligand binding experiments. […] Competition curves were modeled for a single site. Data from competition dose-response curves were analyzed using Tablecurve program (Jandel). IC50 values were converted to equilibrium dissociation constants (Ki values) using the Cheng and Prusoff correction.

[2] = molecular target: human D2-long dopamine receptor (Homo sapiens (Human), UniProt P14416); test: Radioligand binding (125I-IABN competition), D2; settings: HEK cell membranes expressing human D2-long
Sequence of human D2-long dopamine receptor (P14416 whole entry): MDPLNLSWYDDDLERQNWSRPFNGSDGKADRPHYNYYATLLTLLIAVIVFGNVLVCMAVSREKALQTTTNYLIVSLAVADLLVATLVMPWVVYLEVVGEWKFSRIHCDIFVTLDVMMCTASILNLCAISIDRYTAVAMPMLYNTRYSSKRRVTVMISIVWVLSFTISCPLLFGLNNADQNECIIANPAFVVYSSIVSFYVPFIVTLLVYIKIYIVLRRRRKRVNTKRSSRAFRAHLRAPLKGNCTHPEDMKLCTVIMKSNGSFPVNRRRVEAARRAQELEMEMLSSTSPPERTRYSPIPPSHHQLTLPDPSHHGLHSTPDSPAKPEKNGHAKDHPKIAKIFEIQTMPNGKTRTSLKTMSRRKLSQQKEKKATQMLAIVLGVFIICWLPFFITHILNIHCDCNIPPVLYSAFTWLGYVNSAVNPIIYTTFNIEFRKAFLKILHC
Experimental: as §1

[3] = molecular target: T1, human D3 dopamine receptor; test: Whole Cell Adenylyl Cyclase Assay, D3; assay type: cell-based; settings: inhibition of forskolin (100 μM) stimulated cAMP, normalized to quinpirole; compound conc ≥10× Ki (per compound); mean ± S.E.M.
Experimental: (§2) The intrinsic activity of the compounds was evaluated by determining their ability to inhibit forskolin-dependent (100 μM) stimulation of adenylyl cyclase activity using a whole cell assay. A whole cell-cyclic AMP accumulation assay was performed with stably transfected HEK cells expressing human D2 or D3 dopamine receptors. This assay is an adaptation of an earlier published method (Su et al., Cyclic Nucleotide Res. 1976, 2, 257-285). Details regarding this method have been published (Chu, W. et al. Bioorg. Med. Chem. 2005, 13, 77-87; Taylor, M. et al. Synapse 2010, 64, 251-266). Confluent (60-80%) HEK cells transfected with recombinant D2-like dopamine receptors were grown in DMEM/10% fetal calf serum containing geneticin in […] flasks. The endogenous ATP pool is radioactively labeled by preincubating the cells in serum-free DMEM/25 mM Hepes medium containing 2 μCi/mL of [2,8-^3H]-adenine (20-Ci/mmol) in a 5% CO2 incubator at 37° C. for 75 min. The radioactive medium was removed by aspiration. Serum-free DMEM (5.6 mL) containing 25 mM HEPES, pH 7.4, and 0.1 mM of the phosphodiesterase inhibitor isobutylmethylxanthine was added to the flask. A […] aliquot of cells was removed and added to 50 μL of forskolin (100 μM) and 50 μL of test drug or quinpirole in DMEM-HEPES. The cells were incubated for 20 min at 37° C. (vortexing every 5 min). The reaction was terminated by the addition of 0.5 mL of 10% trichloroacetic acid (w/v) containing 1.0 mM unlabeled cyclic AMP as a recovery standard. Both the [^3H]-cyclic AMP and the [^3H]-ATP fractions were collected following separation using columns of Dowex AG-50W-X4 and alumina. The final yield of [^3H]-cyclic AMP is corrected for column recovery of unlabeled cyclic AMP determined spectrophotometrically (OD259). The results are reported as percent conversion of [^3H]-ATP into [^3H]-cyclic AMP. The values for the percent inhibition are reported as the actual percent of inhibition of the ^3H-cAMP accumulation relative to the assay performed in the absence of a test compound, minus basal activity. […] The percent maximum response is the value for the inhibition normalized to the value for the full agonist quinpirole.

[4] = molecular target: human D2 dopamine receptors (Homo sapiens (Human), UniProt P14416); test: Whole Cell Adenylyl Cyclase Assay, D2; assay type: cell-based; settings: inhibition of forskolin (100 μM) stimulated cAMP, normalized to quinpirole; compound conc ≥10× Ki (per compound); mean ± S.E.M.
Sequence of human D2 dopamine receptors (P14416 whole entry): as above
Experimental: as §2

[5] = molecular target: D3R (Homo sapiens (Human), UniProt P35462); test: D3 Mitogenesis Functional Assay (3H-thymidine uptake, CHOp-D3 cells); assay type: cell-based; settings: for Emax at 10 µM: % maximum stimulation vs quinpirole (100%), read-out: D3 Agonist Emax; for D3 Antagonist Imax: inhibition of quinpirole stimulation of mitogenesis; for IC50: read-out: D3 Antagonist IC50
Sequence of D3R (P35462 whole entry): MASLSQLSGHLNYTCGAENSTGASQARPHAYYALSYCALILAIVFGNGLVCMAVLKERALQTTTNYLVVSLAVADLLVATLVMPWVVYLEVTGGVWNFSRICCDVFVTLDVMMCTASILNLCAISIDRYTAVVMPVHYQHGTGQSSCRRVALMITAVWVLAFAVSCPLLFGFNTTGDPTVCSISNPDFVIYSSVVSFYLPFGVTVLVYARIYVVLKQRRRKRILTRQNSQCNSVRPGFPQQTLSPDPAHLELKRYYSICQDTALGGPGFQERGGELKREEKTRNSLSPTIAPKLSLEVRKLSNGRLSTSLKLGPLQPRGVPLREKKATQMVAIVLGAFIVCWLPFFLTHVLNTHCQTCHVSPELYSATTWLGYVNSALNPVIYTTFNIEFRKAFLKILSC
Experimental: (§3) These assays are based on ^3H-thymidine uptake by cells that are proliferating.
CHO cells expressing human D3 receptors (CHOp-D3 cells) were maintained in alpha-MEM with 10% fetal bovine serum (FBS, Atlas Biologicals), 0.05% pen-strep, and 200 μg/ml of G418. […] The cells are incubated at 37° C. in alpha-MEM with 10% FBS. After 48-72 hours, the cells are rinsed twice with serum-free alpha-MEM and incubated for 24 hours at 37° C. Serial dilutions of test compounds were made by the Biomek robotics system in serum-free alpha-MEM. In the functional assay for agonism, the medium is removed and replaced with 100 μL of test compound in serum-free alpha-MEM. In the antagonist assay, the serial dilution of the putative antagonist test compound was added in 90 μL (1.1× of final concentration) and 300 nM quinpirole (30 nM final) was added in 10 uL. After another 16-hour incubation at 37° C., 0.25 μCi of [^3H]thymidine in alpha-MEM supplemented with 10% FBS was added to each well and the plates were further incubated for 2 hours at 37° C. The cells were trypsinized by addition of 10× trypsin solution (1% trypsin in calcium-magnesium-free phosphate-buffered saline) and the plates were filtered and counted as usual. Quinpirole was run as an internal control and dopamine was included for comparative purposes. Butaclamol was run as the standard antagonist. Data were analyzed using GraphPAD Prism and agonist potency was expressed as EC50 values or % stimulation and antagonist potency was expressed as IC50 values. In these assays, based on the % maximum stimulation as compared to the standard agonist quinpirole (100%) the compounds were classified into following categories: ≧90% full agonist; 70-90% partial to full agonist; <70% partial agonist; 0-20% potential antagonist.

[6] = molecular target: human D2 receptors (Homo sapiens (Human), UniProt P14416); test: D2 Mitogenesis Functional Assay (3H-thymidine uptake, CHOp-D2 cells); assay type: cell-based; settings: for Emax at 10 µM: % maximum stimulation vs quinpirole (100%), read-out: D2 Agonist Emax; for Emax at 10 µM / D2 Antagonist Imax: at 10 μM; for D2 Antagonist Imax: inhibition of quinpirole stimulation of mitogenesis; for IC50: read-out: D2 Antagonist IC50
Sequence of human D2 receptors (P14416 whole entry): as the sequence (P14416 whole entry) above
Experimental: as §3
CHO cells expressing human D2 receptors (CHOp-D2 cells) were maintained in alpha-MEM with 10% FCS, 0.05% pen-strep, and 200 μg/mL of G418. […] The cells were incubated at 37° C. in alpha-MEM with 10% FCS. After 48-72 hours, the cells were rinsed twice with serum-free alpha-MEM and incubated for 24 hours at 37° C. Serial dilutions of test compounds were made by the Biomek robotics system in serum-free alpha-MEM. In the functional assay for agonism, the medium was removed and replaced with 100 μL of test compound in serum-free alpha-MEM. In the antagonist assay, the serial dilution of the putative antagonist test compound was added in 90 μL (1.1× of final concentration) and 300 nM quinpirole (30 nM final) was added in […]. After another 24-hour incubation at 37° C., 0.25 μCi of [^3H]thymidine in alpha-MEM supplemented with 10% FCS was added to each well and the plates were further incubated for 2 hours at 37° C. The cells were trypsinized by addition of 10× trypsin solution (1% trypsin in calcium-magnesium-free phosphate-buffered saline) and the plates were filtered and counted as usual. Quinpirole was run as an internal control and dopamine was included for comparative purposes. Butaclamol was run as the standard antagonist.

[7] = inhibition of quinpirole (30 nM final) stimulation of mitogenesis

T1 sequence (P35462 whole entry): as the sequence (P35462 whole entry) above

| Compound | Ki [1] [nM] | D2/D3 (D3 selectivity ratio, D2 Ki/D3 Ki) [1] | Ki [2] [nM] | D3 Cyclase % Inhibition Normalized [3] [%] | D2 Cyclase % Inhibition Normalized [4] [%] | Emax at 10 µM [5] [%] | D3 Antagonist Imax [5] [%] | IC50 [5] [nM] | Emax at 10 µM [6] [%] | D2 Antagonist Imax [6] [% at 10 μM] | IC50 [6] [nM] | EC50 ([5]; CHOp-D3 cells, stimulation of mitogenesis, read-out: D3 Agonist EC50) [nM] | EC50 ([6]; CHOp-D2 cells, stimulation of mitogenesis, read-out: D2 Agonist EC50) [nM] | IC50 [5, 7] [nM] | IC50 [6, 7] [nM] |
| --- | --- | --- | --- | --- | --- | --- | --- | --- | --- | --- | --- | --- | --- | --- | --- |
| O=C(NCCCCN1CCN(c2ccnc3ccccc23)CC1)N1CCN(c2ccccc2)CC1 [Compound 11, 4-Phenyl-N-(4-(4-(quinolin-4-yl)piperazin-1-yl)butyl)piperazine-1-carboxamide] | 9.8 ± 1.2 | 119 | 1170 ± 128 | 43.1 ± 9.4 | 24.4 ± 3.8 | – | – | – | – | – | – | – | – | – | – |
| O=C(NCCCCN1CCN(c2ccccc2)CC1)N1CCN(c2ccccc2)CC1 [Compound 1, 4-Phenyl-N-(4-(4-phenylpiperazin-1-yl)butyl)piperazine-1-carboxamide] | 2 ± 0.2 | 62 | 124 ± 26.2 | 48.3 ± 9.4 | 91.4 ± 2.4 | – | – | – | – | – | – | – | – | – | – |
| O=C(NCCCCN1CCN(c2cccc(Cl)c2Cl)CC1)N1CCC(c2ccccc2)CC1 [Compound 47, N-(4-(4-(2,3-Dichlorophenyl)piperazin-1-yl)butyl)-4-phenylpiperidine-1-carboxamide] | 1.9 ± 0.4 | 53 | 102 ± 11 | 78.9 ± 17.1 | – | < 20 | 96.8 | 40 ± 15 | < 20 | 98.5 | 286 ± 27 | – | – | – | – |
| CC(C)(C)c1nc(N2CCN(CCCCNC(=O)c3cn4ccncc4n3)CC2)cc(C(F)(F)F)n1 [Compound 115, N-(4-(4-(2-(tert-Butyl)-6-(trifluoromethyl)pyrimidin-4-yl)piperazin-1-yl)butyl)imidazo[1,2-a]pyrazine-2-carboxamide] | 8 ± 1.6 | 56 | 450 | 37.8 ± 5.4 | – | < 20 | 94.7 | – | < 20 | 96.6 | – | – | – | 245 ± 33 | 420 ± 120 |
| CC(C)(C)c1nc(N2CCN(CCCCNC(=O)C3CCC(c4ccccc4)CC3)CC2)cc(C(F)(F)F)n1 (stereo not drawn) [Compound 103, N-(4-(4-(2-(tert-Butyl)-6-(trifluoromethyl)pyrimidin-4-yl)piperazin-1-yl)butyl)-4-phenylcyclohexanecarboxamide] | – | – | – | 51.6 ± 13.4 | – | – | – | – | – | – | – | – | – | – | – |
| CC(C)(C)c1nc(N2CCN(CCCCNC(=O)c3cn4nc(Cl)ccc4n3)CC2)cc(C(F)(F)F)n1 [Compound 116, N-(4-(4-(2-(tert-Butyl)-6-(trifluoromethyl)pyrimidin-4-yl)piperazin-1-yl)butyl)-6-chloroimidazo[1,2-b]pyridazine-2-carboxamide] | – | – | 655 ± 80.6 | 31.5 ± 7.0 | – | < 1 | – | – | < 1 | – | – | – | – | – | 1160 ± 110 |

Second part, led by results:

| Ki [1] [nM] | D2/D3 (D3 selectivity ratio, D2 Ki/D3 Ki) [1] | Ki [2] [nM] | D3 Cyclase % Inhibition Normalized [3] [%] | D2 Cyclase % Inhibition Normalized [4] [%] | Emax at 10 µM [5] [%] | D3 Antagonist Imax [5] [%] | IC50 [5] [nM] | Emax at 10 µM [6] [%] | D2 Antagonist Imax [6] [% at 10 μM] | IC50 [6] [nM] | EC50 ([5]; CHOp-D3 cells, stimulation of mitogenesis, read-out: D3 Agonist EC50) [nM] | EC50 ([6]; CHOp-D2 cells, stimulation of mitogenesis, read-out: D2 Agonist EC50) [nM] | Compound | IC50 [5, 7] [nM] | IC50 [6, 7] [nM] |
| --- | --- | --- | --- | --- | --- | --- | --- | --- | --- | --- | --- | --- | --- | --- | --- |
| 4.1 ± 1 | 72 | 294 ± 59.6 | 8.2 ± 4.2 | −9.2 ± 8.3 | – | – | – | – | – | – | – | – | N#Cc1cc(N2CCN(CCCCNC(=O)N3CCN(c4ccccc4)CC3)CC2)cc(C(F)(F)F)c1 [Compound 4, N-(4-(4-(3-Cyano-5-(trifluoromethyl)phenyl)piperazin-1-yl)butyl)-4-phenylpiperazine-1-carboxamide] | – | – |
| 41.5 ± 9.1 | 93 | 3880 ± 1220 | 42.4 ± 8.9 | 30.4 ± 14.6 | – | – | – | – | – | – | – | – | Cc1cc(N2CCN(CCCCNC(=O)N3CCN(c4ccccc4)CC3)CC2)nc(C(F)(F)F)n1 [Compound 7, N-(4-(4-(6-Methyl-2-(trifluoromethyl)pyrimidin-4-yl)piperazin-1-yl)butyl)-4-phenylpiperazine-1-carboxamide] | – | – |
| 43.1 ± 4.8 | 94 | 4040 ± 965 | 61.9 ± 6.4 | – | – | – | – | – | – | – | – | – | CC(C)(C)c1nc(N2CCN(CCCCNC(=O)N3CCN(c4ccccc4)CC3)CC2)c2ccccc2n1 [Compound 13, N-(4-(4-(2-(tert-Butyl)quinazolin-4-yl)piperazin-1-yl)butyl)-4-phenylpiperazine-1-carboxamide] | – | – |
| 13.7 ± 3.1 | 87 | 1190 ± 67.4 | 40.8 ± 9.7 | – | < 8 | 84.4 | 195 ± 39 | < 1 | 100 | 257 ± 90 | > 10000 | > 10000 | CC(C)(C)c1nc(N2CCN(CCCCNC(=O)N3CCN(c4ncccn4)CC3)CC2)cc(C(F)(F)F)n1 [Compound 32, N-(4-(4-(2-(tert-Butyl)-6-(trifluoromethyl)pyrimidin-4-yl)piperazin-1-yl)butyl)-4-(pyrimidin-2-yl)piperazine-1-carboxamide] | – | – |
| 29.2 ± 5.3 | 442 | 12900 ± 2510 | 26.4 ± 4.6 | – | – | – | – | – | – | – | – | – | Cc1nc(N2CCN(CCCCNC(=O)N3CCN(c4ccccc4)CC3)CC2)cc(C(C)(C)C)n1 [Compound 6, N-(4-(4-(6-(tert-Butyl)-2-methylpyrimidin-4-yl)piperazin-1-yl)butyl)-4-phenylpiperazine-1-carboxamide] | – | – |
